Experimental data taken from patent publication US12390419B2, “Formulations of (R)-2-amino-3-phenylpropyl carbamate” (AXSOME MALTA LTD., priority 2016, dated 2025).
In brackets after ≈: the same amount, converted by molar mass.

Columns and labels:
[1] = Dissolution of coated APC tablets in three media (apparatus 1 basket, 100 rpm, 900 ml, 37° C.); assay type: physicochemical
Procedure: A substantial concern was the effect of media pH. Although APC will be developed as an immediate release product, FDA guidances require comparison of profiles in three media including pH 6.8 (representing intestinal pH). […] The media used were 0.1 N HCl pH 1.2, acetate buffer pH 4.5, and phosphate buffer pH 6.8. The dissolution study was carried using 12 tablets per dose, apparatus 1 (basket), 900 ml media volume, 37° C., 100 rpm. The tablets were coated with Opadry white polymer system.

[2] = Solubility of APC in 0.2M phosphate buffers; assay type: physicochemical

NC(=O)OC[C@H](N)Cc1ccccc1 [APC, (R)-2-amino-3-phenylpropyl carbamate]
Percent release ([1]; 37.5 mg tablet, pH 1.2, 5 min): 71.9% | Percent release ([1]; 37.5 mg tablet, pH 1.2, 10 min): 99.3% | Percent release ([1]; 37.5 mg tablet, pH 1.2, 15 min): 99.7% | Percent release ([1]; 37.5 mg tablet, pH 4.5, 5 min): 76.8% | Percent release ([1]; 37.5 mg tablet, pH 4.5, 10 min): 101.8% | Percent release ([1]; 37.5 mg tablet, pH 4.5, 15 min): 102.1% | Percent release ([1]; 37.5 mg tablet, pH 6.8, 5 min): 69.6% | Percent release ([1]; 37.5 mg tablet, pH 6.8, 10 min): 100.2% | Percent release ([1]; 37.5 mg tablet, pH 6.8, 15 min): 100.7% | Percent release ([1]; 75 mg tablet, pH 1.2, 5 min): 62.9% | Percent release ([1]; 75 mg tablet, pH 1.2, 10 min): 98.7% | Percent release ([1]; 75 mg tablet, pH 1.2, 15 min): 99.4% | Percent release ([1]; 75 mg tablet, pH 4.5, 5 min): 53.9% | Percent release ([1]; 75 mg tablet, pH 4.5, 10 min): 100.8% | Percent release ([1]; 75 mg tablet, pH 4.5, 15 min): 102.5% | Percent release ([1]; 75 mg tablet, pH 6.8, 5 min): 57.6% | Percent release ([1]; 75 mg tablet, pH 6.8, 10 min): 99.4% | Percent release ([1]; 75 mg tablet, pH 6.8, 15 min): 100.2% | Percent release ([1]; 150 mg tablet, pH 1.2, 5 min): 46.8% | Percent release ([1]; 150 mg tablet, pH 1.2, 10 min): 96.9% | Percent release ([1]; 150 mg tablet, pH 1.2, 15 min): 98.4% | Percent release ([1]; 150 mg tablet, pH 4.5, 5 min): 42.6% | Percent release ([1]; 150 mg tablet, pH 4.5, 10 min): 97.7% | Percent release ([1]; 150 mg tablet, pH 4.5, 15 min): 100.4% | Percent release ([1]; 150 mg tablet, pH 6.8, 5 min): 42.4% | Percent release ([1]; 150 mg tablet, pH 6.8, 10 min): 97.4% | Percent release ([1]; 150 mg tablet, pH 6.8, 15 min): 100.7% | Percent release ([1]; 300 mg tablet, pH 1.2, 5 min): 35.0% | Percent release ([1]; 300 mg tablet, pH 1.2, 10 min): 91.2% | Percent release ([1]; 300 mg tablet, pH 1.2, 15 min): 99.5% | Percent release ([1]; 300 mg tablet, pH 4.5, 5 min): 30.0% | Percent release ([1]; 300 mg tablet, pH 4.5, 10 min): 89.1% | Percent release ([1]; 300 mg tablet, pH 4.5, 15 min): 99.8% | Percent release ([1]; 300 mg tablet, pH 6.8, 5 min): 31.6% | Percent release ([1]; 300 mg tablet, pH 6.8, 10 min): 89.9% | Percent release ([1]; 300 mg tablet, pH 6.8, 15 min): 100.2% | solubility ([2]; 0.2M phosphate buffer, pH 6.8, aqueous buffer, thermodynamic from solid): 26 mg/mL (≈ 134 mM) | solubility ([2]; aqueous buffer, thermodynamic from solid, 0.2M phosphate buffer pH 5.33, pH after equilibration 4.25): 542 mg/mL (≈ 2790 mM) | solubility ([2]; aqueous buffer, thermodynamic from solid, 0.2M phosphate buffer pH 5.95, pH after equilibration 4.78): 525 mg/mL (≈ 2710 mM) | solubility ([2]; aqueous buffer, thermodynamic from solid, 0.2M phosphate buffer pH 6.97, pH after equilibration 6.76): 26.6 mg/mL (≈ 137 mM) | solubility ([2]; aqueous buffer, thermodynamic from solid, 0.2M phosphate buffer pH 8.02, pH after equilibration 7.47): 22.5 mg/mL (≈ 116 mM) | solubility ([2]; aqueous buffer, thermodynamic from solid, 0.2M phosphate buffer pH 8.99, pH after equilibration 7.55): 22.4 mg/mL (≈ 115 mM) | solubility ([2]; pH 4.22, thermodynamic from solid, pH of buffer N/A (water), pH after equilibration 4.22): 534 mg/mL (≈ 2750 mM) | solubility ([2]; water or acidic media, water, thermodynamic from solid): 530 mg/mL (≈ 2730 mM)
